From ChEMBL document CHEMBL5143706, “2-Alkyl substituted benzimidazoles as a new class of selective AT2 receptor ligands” (Bioorg Med Chem, 2022) come the findings set out here.

Each structure is given as a SMILES string.

Data set [1] deals with T1, Type-1 angiotensin II receptor (Homo sapiens, UniProt P30556).
T1 sequence (P30556 whole entry): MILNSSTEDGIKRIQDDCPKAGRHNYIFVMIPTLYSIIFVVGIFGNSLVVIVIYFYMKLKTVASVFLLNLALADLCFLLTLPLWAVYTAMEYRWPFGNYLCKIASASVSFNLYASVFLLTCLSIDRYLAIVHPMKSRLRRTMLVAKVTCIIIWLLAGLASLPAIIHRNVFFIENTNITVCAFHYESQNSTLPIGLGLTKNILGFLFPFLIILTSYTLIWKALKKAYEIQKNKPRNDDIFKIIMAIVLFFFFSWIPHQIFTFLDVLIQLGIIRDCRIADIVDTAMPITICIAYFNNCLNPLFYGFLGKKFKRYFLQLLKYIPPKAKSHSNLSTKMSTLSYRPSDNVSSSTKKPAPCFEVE
Nature of the data set: Displacement of [125-I]-[Sar1Ile8]-angiotensin II from human AT1R expressed in HEK293 cell membrane assessed as inhibition constant by radioligand binding assay. The format is cell membranes.

The target of data set [2] is T2, Type-2 angiotensin II receptor (Homo sapiens, UniProt P50052).
T2 sequence (P50052 whole entry): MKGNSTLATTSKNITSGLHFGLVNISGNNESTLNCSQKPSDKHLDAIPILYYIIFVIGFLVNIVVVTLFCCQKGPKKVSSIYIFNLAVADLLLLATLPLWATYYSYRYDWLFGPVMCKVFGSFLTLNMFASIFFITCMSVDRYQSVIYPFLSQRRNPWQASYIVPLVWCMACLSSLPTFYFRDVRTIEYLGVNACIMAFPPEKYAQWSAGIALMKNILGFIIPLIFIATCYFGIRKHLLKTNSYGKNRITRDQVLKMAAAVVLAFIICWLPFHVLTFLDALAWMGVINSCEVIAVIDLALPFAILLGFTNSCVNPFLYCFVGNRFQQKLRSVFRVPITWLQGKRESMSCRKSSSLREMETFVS
As to the kind of experiment: Displacement of [125-I]-[Sar1Ile8]-angiotensin II from human AT2R expressed in HEK293 cell membrane assessed as inhibition constant by radioligand binding assay. The format is cell membranes.

The nature of data set [3]: Displacement of [125-I]-angiotensin II from AT2R in pig myometrial membrane assessed as inhibition constant incubated for 1.5 hrs by gamma counter analysis. In kind it is cell membranes, Sus scrofa, Myometrium.
The nature of data set [4]: Metabolic stability in Sprague-Dawley rat liver microsomes assessed as half life at 1 uM preincubated for 5 mins followed by NADPH addition and measured upto 60 mins by HPLC-MS/MS analysis. In kind it is ADME, Microsome.
A short description of data set [5]: Metabolic stability in human liver microsomes assessed as half life at 1 uM preincubated for 5 mins followed by NADPH addition and measured upto 60 mins by HPLC-MS/MS analysis. In kind it is ADME, Microsome. The settings on record: time < 65 min. A general note: Microsomes from liver hold many membrane-bound enzymes, among them those of drug oxidation.
Data set [6] in a line: Metabolic stability in CD-1 mouse liver microsomes assessed as half life at 1 uM preincubated for 5 mins followed by NADPH addition and measured upto 60 mins by HPLC-MS/MS analysis. The format is ADME, Microsome. The settings on record: time < 65 min.
Another data set is filed under the species Homo sapiens. Nature of the data set: Selectivity index, ratio of Ki for displacement of [125-I]-[Sar1Ile8]-angiotensin II from human AT2R expressed in HEK293 cell membrane to Ki for displacement of [125-I]-[Sar1Ile8]-angiotensin II from human AT1R expressed in HEK293 cell membrane. In kind it is cell membranes.

What is called Ki is a dissociation constant, usually derived from enzyme kinetics or from competition with a known ligand. Turning to `CCCCOC(=O)NS(=O)(=O)c1ccc(CCC)cc1-c1ccc(Cn2c(CCC)nc3ccccc32)cc1`, the Ki in data set [1] came to 460 nM; in data set [2], 14 nM.
For `CCCCOC(=O)NS(=O)(=O)c1ccc(CCC)cc1-c1cc(F)c(Cn2c(C(C)(C)C)nc3ccccc32)c(F)c1`, in that order: above 3000 nM and 11 nM.
On to `CCCCOC(=O)NS(=O)(=O)c1sc(CC(C)C)cc1-c1ccc(Cn2ccnc2)cc1` [BULOXIBUTID], for which the Ki in data set [3] turned out to be 0.4 nM.
Consider `CCCCOC(=O)NS(=O)(=O)c1ccc(CCC)cc1-c1ccc(Cn2c(C3CCC3)nc3ccccc32)cc1`, for which the figures for the Ki in data set [1] and in data set [2] were 400 nM and 12 nM, respectively.
The half-life is how long it takes for the measured level to halve. For the molecule `CCCc1ccc(S(=O)(=O)NC(=O)OCCCC(F)(F)F)c(-c2ccc(Cn3c(C(C)(C)C)nc4ccccc43)cc2)c1`, the half-life at 1 µM in data set [4] was 21 min; in data set [5] it was 20 min; in data set [6], 6 min. Further, the Ki was above 3000 nM in data set [1] and 4.5 nM in data set [2].
Regarding `CCCCOC(=O)NS(=O)(=O)c1ccc(CCC)cc1-c1ccc(Cn2c(CCCC)nc3ccccc32)cc1`, the inhibition constant (Ki) in data set [1] was 180 nM; in data set [2] it was 9.2 nM.
For `CCCCOC(=O)NS(=O)(=O)c1ccc(CCC)cc1-c1ccc(Cn2c(CC(C)C)nc3ccccc32)cc1`, in that order: above 3000 nM and 19 nM.
With `CCCCOC(=O)NS(=O)(=O)c1ccc(CCC)cc1-c1ccc(Cn2c(CC)nc3ccccc32)cc1`, the results for the Ki in data set [1] and in data set [2] were 710 nM and 11 nM, respectively.
Regarding `CCCc1ccc(S(=O)(=O)NC(=O)OCCCC(F)(F)F)c(-c2cc(F)c(Cn3c(C(C)(C)C)nc4ccccc43)c(F)c2)c1`, the results for the half-life at 1 µM in data set [4], in data set [5] and in data set [6] were 16 min, 15 min and 6 min, respectively. For the same molecule, the Ki in data set [1] is above 3000 nM; in data set [2], 12 nM.
As for `CCCCOC(=O)NS(=O)(=O)c1ccc(CCC)cc1-c1ccc(Cn2c(C3CC3)nc3ccccc32)cc1`, the Ki came out at 710 nM in data set [1] and 31 nM in data set [2].
As to `CCCCOC(=O)NS(=O)(=O)c1ccc(CCC)cc1-c1ccc(Cn2c(-c3nccs3)nc3ccccc32)cc1`, the half-life at 1 µM in data set [4] was found to be 16 min; in data set [5], 21 min; in data set [6], 5 min. Moreover, the results for the Ki in data set [1] and in data set [2] were above 3000 nM and 5.1 nM, respectively.
Consider `CCCCOC(=O)NS(=O)(=O)c1ccc(CCC)cc1-c1ccc(Cn2c(C(C)C)nc3ccccc32)cc1`, for which, in the data set filed under Homo sapiens, the Ratio Ki came to 100. Besides, the inhibition constant Ki was 390 nM in data set [1] and 4 nM in data set [2].
Consider `CCCCOC(=O)NS(=O)(=O)c1ccc(CCC)cc1-c1ccc(Cn2c(C3CCCCC3)nc3ccccc32)cc1`, for which the Ki in data set [1] was above 3000 nM; in data set [2], 130 nM.
The corresponding values for `CCCCOC(=O)NS(=O)(=O)c1ccc(CCC)cc1-c1ccc(Cn2c(-c3ccccc3)nc3ccccc32)cc1` are above 1000 nM and 590 nM.
As for `CCCCOC(=O)NS(=O)(=O)c1ccc(CCC)cc1-c1ccc(Cn2c(C)nc3ccccc32)cc1`, the half-life at 1 µM is 6 min in data set [4], 10 min in data set [5] and 4 min in data set [6]. The results for the inhibition constant (Ki) in data set [1] and in data set [2] were 620 nM and 9.4 nM, respectively.
Regarding `CCCc1ccc(S(=O)(=O)NC(=O)OCCC(F)(F)C(F)(F)F)c(-c2ccc(Cn3c(C(C)(C)C)nc4ccccc43)cc2)c1`, the Ki in data set [1] was above 3000 nM; in data set [2] it was 6 nM.
For `CCCCOC(=O)NS(=O)(=O)c1ccc(CCC)cc1-c1ccc(Cn2c(C3CCCC3)nc3ccccc32)cc1`, the Ratio Ki in the data set listed under Homo sapiens is 10. The values for the Ki in data set [1] and in data set [2] were 410 nM and 35 nM, respectively.
Turning to `CCCCOC(=O)NS(=O)(=O)c1ccc(CCC)cc1-c1ccc(Cn2cnc3ccccc32)cc1`, the half-life at 1 µM in data set [4] was found to be 5 min; in data set [5], 10 min; in data set [6], 5 min. The Ki in data set [1] was above 1000 nM; in data set [2], 29 nM.
In the case of `CCCCOC(=O)NS(=O)(=O)c1ccc(CCC)cc1-c1ccc(Cn2c(C34CC5CC(CC(C5)C3)C4)nc3ccccc32)cc1`, the Ki was above 3000 nM in data set [1] and 460 nM in data set [2].
On to `CCCCOC(=O)NS(=O)(=O)c1ccc(CCC)cc1-c1ccc(Cn2c(C(C)(C)C)nc3ccccc32)cc1`, for which the half-life at 1 µM in data set [4] turned out to be 20 min; in data set [5], 12 min; in data set [6], 7 min. Besides, the Ki in data set [1] was above 1000 nM; in data set [2], 5.3 nM.
As to `CCCCOC(=O)NS(=O)(=O)c1ccc(CCC)cc1-c1ccc(Cn2c(Cc3ccccc3)nc3ccccc32)cc1`, the Ki in data set [1] was above 3000 nM; in data set [2], 15 nM.
Consider `CCCCOC(=O)NS(=O)(=O)c1ccc(CCC)cc1-c1ccc(Cn2c(C(F)(F)F)nc3ccccc32)cc1`, for which the results for the half-life at 1 µM in data set [4], in data set [5] and in data set [6] were 7 min, 10 min and 4 min, respectively. Also, the figures for the Ki in data set [1] and in data set [2] were above 1000 nM and 13 nM, respectively.
